Assay results: patent US8748417B2, “Amino-pyrrolidine-azetidine diamides as monoacylglycerol lipase inhibitors” (Janssen Pharmaceutica, NV, priority 2010, dated 2014)
Substitutions are numbered along the chain they refer to.

What was measured:
Format in all cases: biochemical
[1] = biological target: T1, purified mutant MGL (mut-MGLL 11-313 L179S L186S) (Homo sapiens, UniProt Q99685, L169S/L176S); assay: MGL enzyme activity assay (4MU-B cleavage), mutant MGL; conditions: mutant MGL 5 nM, 4MU-B 10 μM, 37° C.; read-out: MGL mutant inh IC50
T1 construct: purified mutant MGL (mut-MGLL 11-313 L179S L186S)
T1 sequence (Q99685 1-303 L169S/L176S): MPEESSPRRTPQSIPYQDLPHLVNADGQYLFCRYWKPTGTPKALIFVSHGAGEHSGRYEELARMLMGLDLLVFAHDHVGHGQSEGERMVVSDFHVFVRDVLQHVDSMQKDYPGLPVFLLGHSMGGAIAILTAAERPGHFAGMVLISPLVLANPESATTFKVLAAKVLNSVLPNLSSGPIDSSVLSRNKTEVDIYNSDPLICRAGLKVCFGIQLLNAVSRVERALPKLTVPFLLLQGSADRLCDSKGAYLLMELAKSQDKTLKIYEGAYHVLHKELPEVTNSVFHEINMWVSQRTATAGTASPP
Description: All rate-based assays were performed in black 384-well polypropylene PCR microplates (Abgene) in a total volume of 30 μL. Substrate 4-methylumbelliferyl butyrate (4MU-B; Sigma) and either purified mutant MGL (mut-MGLL 11-313 L179S L186S) or purified wild type MGL (wt-MGLL 6H-11-313) were diluted separately into 20 mM PIPES buffer (pH=7.0), containing 150 mM NaCl and 0.001% Tween 20. Compounds of Formula (I) were pre-dispensed (50 nL) into the assay plate using a Cartesian Hummingbird prior to adding 4MU-B (25 μL of 1.2× solution to a final concentration of 10 μM) followed by enzyme (5 μL of a 6× solution to a final concentration of 5 nM) to initiate the reaction. Final compound concentrations ranged from 17 to 0.0003 μM. The fluorescence change due to 4MU-B cleavage was monitored with excitation and emission wavelengths of 335 and 440 nm, respectively, and a bandwidth of 10 nm (Safire^2, Tecan) at 37° C. for 5 min.
The IC50 values for the following compounds were determined using Microsoft Office Excel from a fit of the equation to the concentration-response plot of the fractional activity as a function of inhibitor concentration.

[2] = tested on: MGL (rat brain homogenate); assay: 2-AG accumulation assay in rat brain homogenate; conditions: compound 1 μM, percent of vehicle 2-AG accumulation
Procedure, shortened: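 Rat brain homogenate was incubated with compound for 15 min at 37° C., after which CaCl2 was added to a final concentration of 10 mM and incubation continued for 15 min at 37° C. in 5 mL total. Reactions were stopped with 6 mL of 2:1 chloroform/methanol, and 2-AG accumulated in the organic phase was quantified by HPLC/MS.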

[3] = biological target: T2, purified wild type MGL (wt-MGLL 6H-11-313) (Homo sapiens, UniProt Q99685); assay: MGL enzyme activity assay (4MU-B cleavage), wild type MGL; conditions: wild type MGL 5 nM, 4MU-B 10 μM, 37° C.; read-out: MGL wild type inh IC50
T2 construct: purified wild type MGL (wt-MGLL 6H-11-313)
T2 sequence (Q99685 1-303): T1 sequence (Q99685 1-303 L169S/L176S) with S169L, S176L
Procedure, shortened: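 Enzyme in 20 mM PIPES pH 7.0, 150 mM NaCl, 0.001% Tween 20 with 4MU-B at 10 μM final and MGL at 5 nM final; compounds 17 to 0.0003 μM final, enzyme added last. Fluorescence (ex 335/em 440 nm) followed at 37° C for 5 min; IC50 from fit of fractional activity versus inhibitor concentration.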

| Structure (SMILES) | IC50 [1] | Rat Brain 2AG % VehCntrl (%) @1 μM [2] | IC50 [3] |
| --- | --- | --- | --- |
| O=C(c1ccc(-c2cccc(C(F)(F)F)c2)cc1)N1CC(NC2CN(C(=O)c3ccccc3)CC2F)C1 (stereo not drawn) [Cpd 59, (3-((1-Benzoyl-4-fluoropyrrolidin-3-yl)amino)azetidin-1-yl)(3′-(trifluoromethyl)-[1,1′-biphenyl]-4-yl)methanone] | < 5 nM | 389% | 41.4 nM |
| Cc1c(C(=O)N2CC(N[C@H]3CCN(C(=O)c4ccccc4)C3)C2)sc2ccc(-c3cccc(C(F)(F)F)c3)cc12 [Cpd 41, (3S)-N-[1-({3-Methyl-5-[3-(trifluoromethyl)phenyl]-1-benzothiophen-2-yl}carbonyl)azetidin-3-yl]-1-(phenylcarbonyl)pyrrolidin-3-amine] | 6.3 nM | 1102% | < 5 nM |
| O=C(c1ccccc1)N1CC[C@H](NC2CN(C(=O)c3cc4cc(OC(F)(F)F)ccc4s3)C2)C1 [Cpd 18, (3S)-1-(Phenylcarbonyl)-N-(1-{[5-(trifluoromethoxy)-1-benzothiophen-2-yl]carbonyl}azetidin-3-yl)pyrrolidin-3-amine] | 16.8 nM | 229% | 17.6 nM |
| CCN(C1CN(C(=O)c2ccc(-c3cccc(C(F)(F)F)c3)cc2)C1)[C@H]1CCN(C(=O)c2ccccc2)C1 [Cpd 53, (3S)-N-Ethyl-1-(phenylcarbonyl)-N-(1-{[3′-(trifluoromethyl)biphenyl-4-yl]carbonyl}azetidin-3-yl)pyrrolidin-3-amine] | 10 nM | 164% | 286 nM |
| O=C(c1ccccc1)N1CC[C@H](NC2CN(C(=O)c3sc4ccccc4c3Br)C2)C1 [Cpd 55, (3S)-N-{1-[(3-Bromo-1-benzothiophen-2-yl)carbonyl]azetidin-3-yl}-1-(phenylcarbonyl)pyrrolidin-3-amine] | < 5 nM | 247% | 20.2 nM |
| O=C(c1ccccc1)N1CC[C@H](NC2CN(C(=O)c3sc4cc(-c5cccc(C(F)(F)F)c5)ccc4c3Cl)C2)C1 [Cpd 32, (3S)-N-[1-({3-Chloro-6-[3-(trifluoromethyl)phenyl]-1-benzothiophen-2-yl}carbonyl)azetidin-3-yl]-1-(phenylcarbonyl)pyrrolidin-3-amine] | < 5 nM | 524% | < 5 nM |
| O=C(c1ccc(-c2ccc(Cl)c(Cl)c2)cc1)N1CC(N[C@H]2CCN(C(=O)c3ccccc3)C2)C1 [Cpd 30, (3S)-N-{1-[(3′,4′-Dichlorobiphenyl-4-yl)carbonyl]azetidin-3-yl}-1-(phenylcarbonyl)pyrrolidin-3-amine] | 8.8 nM | 155% | 7 nM |
| O=C(c1ccccc1)N1CC[C@H](NC2CN(C(=O)c3cc4ccc(-c5cccc(C(F)(F)F)c5)cc4s3)C2)C1 [Cpd 44, (3S)-1-(Phenylcarbonyl)-N-[1-({6-[3-(trifluoromethyl)phenyl]-1-benzothiophen-2-yl}carbonyl)azetidin-3-yl]pyrrolidin-3-amine] | 31.7 nM | 839% | 9 nM |
| O=C(c1ccccc1)N1CC[C@H](NC2CN(C(=O)c3sc4cc(-c5ccc(C(F)(F)F)cc5)ccc4c3Cl)C2)C1 [Cpd 33, (3S)-N-[1-({3-Chloro-6-[4-(trifluoromethyl)phenyl]-1-benzothiophen-2-yl}carbonyl)azetidin-3-yl]-1-(phenylcarbonyl)pyrrolidin-3-amine] | < 5 nM | 499% | < 5 nM |
| O=C(c1ccc(-c2cccc(Cl)c2)cc1)N1CC(N[C@H]2CCN(C(=O)c3ccccc3)C2)C1 [Cpd 29, (3S)-N-{1-[(3′-Chlorobiphenyl-4-yl)carbonyl]azetidin-3-yl}-1-(phenylcarbonyl)pyrrolidin-3-amine] | 11 nM | 163% | 9.8 nM |
| O=C(c1ccc2c(-c3ccccc3)c[nH]c2c1)N1CC(N[C@H]2CCN(C(=O)c3ccccc3)C2)C1 [Cpd 57, (3S)-1-(Phenylcarbonyl)-N-{1-[(3-phenyl-1H-indol-6-yl)carbonyl]azetidin-3-yl}pyrrolidin-3-amine] | 44.3 nM | 154% | 179 nM |
| O=C(c1ccccc1)N1CC[C@H](NC2CN(C(=O)c3sc4cc(F)ccc4c3Cl)C2)C1 [Cpd 56, (3S)-N-{1-[(3-Chloro-6-fluoro-1-benzothiophen-2-yl)carbonyl]azetidin-3-yl}-1-(phenylcarbonyl)pyrrolidin-3-amine] | < 5 nM | 222% | 68.4 nM |
| O=C(c1ccc(-c2cccc(C(F)(F)F)c2)cc1)N1CC(N(O)[C@H]2CCN(C(=O)c3ccccc3)C2)C1 [Cpd 54, (3S)-N-Hydroxy-1-(phenylcarbonyl)-N-(1-{[3′-(trifluoromethyl)biphenyl-4-yl]carbonyl}azetidin-3-yl)pyrrolidin-3-amine] | < 5 nM | 242% | 58.8 nM |
| CN(C1CN(C(=O)c2ccc(-c3cccc(C(F)(F)F)c3)cc2)C1)[C@H]1CCN(C(=O)c2ccccc2)C1 [Cpd 15, (3S)-N-Methyl-1-(phenylcarbonyl)-N-(1-{[3′-(trifluoromethyl)biphenyl-4-yl]carbonyl}azetidin-3-yl)pyrrolidin-3-amine] | 11.7 nM | 649% | 26.5 nM |
| O=C(c1ccc2c(-c3cccc(C(F)(F)F)c3)cccc2c1)N1CC(N[C@H]2CCN(C(=O)c3ccccc3)C2)C1 [Cpd 25, (3S)-1-(Phenylcarbonyl)-N-[1-({5-[3-(trifluoromethyl)phenyl]naphthalen-2-yl}carbonyl)azetidin-3-yl]pyrrolidin-3-amine] | 7 nM | 823% | < 5 nM |
